The text below walks through data of patent US20230286923A1 (INIPHARM, INC., priority 2020, published 2023).

Test [1] concerns the target T1, HSD17B13 enzyme (Homo sapiens (Human), UniProt Q7Z5P4). Put plainly: Estrone detection assay (LC/MS, conversion of estradiol to estrone) for HSD17B13 activity. The settings on record: substrate 4 µM estradiol, 6 mM NAD+, 30 nM enzyme. The format is biochemical.
Test [2] deals with T1, HSD17B13 enzyme. The test is described as follows: NADH detection assay (fluorescence based LTB3 assay) for HSD17B13 activity. The settings on record: substrate 25 µM LTB3, 3 mM NAD+, 125 nM enzyme. It is filed as biochemical. How it is done: The fluorescence based Leukotriene B3 (LTB3) assay monitors the fluorescence of NADH, which is generated from NAD+ during the dehydrogenation of the substrate LTB3. The reactions were performed in a 384-well plates (Greiner; #655076) in a 20 µl reaction volume containing the following reagents (final concentrations): 25 µM LTB3 (Cayman; #20109); 3 mM NAD^+ (Sigma; #N0623); 125 nM HSD17B13 enzyme (in-house; E. coli expressed His-tagged, purified, soluble protein); 1 M potassium phosphate buffer, pH 7.4; and 1% DMSO. Reactions were initiated by co-addition of NAD+ and enzyme, and monitored for 1 hour at 26.5° C. Generation of NADH was measured as the fluorescence signal (Excitation at 340 nm and Emission at 445 nm) at 1 hour minus the baseline fluorescence at t=0. Fluorescence signals in the absence of LTB3 (negative control values), were subtracted from all values so that the results reflected substrate-dependent production of NADH. NADH standards were included to allow the conversion of relative fluorescence units into rates of enzyme activity. Enzyme activity in the presence of test compounds was expressed as a percentage of the uninhibited enzyme activity, and plotted versus inhibitor concentration. Non-linear regression was performed using a four-parameter logistic model and Microsoft Excel Solver software Ten concentrations of inhibitor were tested in duplicate (in the range of 30 µM - 2.5 nM), and two independent concentration response assays were performed.

T1 sequence (Q7Z5P4 20-300): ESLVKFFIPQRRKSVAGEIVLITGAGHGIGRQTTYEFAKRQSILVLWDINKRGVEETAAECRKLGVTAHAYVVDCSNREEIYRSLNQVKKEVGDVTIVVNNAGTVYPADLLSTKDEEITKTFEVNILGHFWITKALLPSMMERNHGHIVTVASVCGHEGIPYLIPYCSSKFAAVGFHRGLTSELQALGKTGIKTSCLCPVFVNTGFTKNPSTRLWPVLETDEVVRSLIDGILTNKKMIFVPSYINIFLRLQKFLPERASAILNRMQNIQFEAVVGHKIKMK

Broadly, the IC50 is the concentration that gives 50% inhibition. Low readings indicate greater potency in that assay, high ones weaker potency in that assay. As for `CC(C)(C)CCn1cnc2cccc(NC(=O)c3cc(Cl)c(O)nn3)c2c1=O` [Example 15, 5-chloro-N-(3-(3,3-dimethylbutyl)-4-oxo-3,4-dihydroquinazolin-5-yl)-6-hydroxypyridazine-3-carboxamide], the IC50 against HSD17B13 enzyme [1] was 1000 to 10000 nM; against HSD17B13 enzyme [2], greater than 10000 nM.

Turning to `COc1ccccc1CCn1cnc2cccc(NC(=O)c3cc(Cl)c(O)c(Cl)c3)c2c1=O` [Example 33, 3,5-dichloro-4-hydroxy-N-(3-(2-methoxyphenethyl)-4-oxo-3,4-dihydroquinazolin-5-yl)benzamide], the half-inhibitory concentration (IC50) against HSD17B13 enzyme [1] was 100 to 1000 nM; against HSD17B13 enzyme [2], 1000 to 5000 nM.

As for `COc1ccccc1CCn1cnc2cccc(NC(=O)c3ccc(O)c(C(F)(F)F)c3)c2c1=O` [Example 32, 4-hydroxy-N-(3-(2-methoxyphenethyl)-4-oxo-3,4-dihydroquinazolin-5-yl)-3-(trifluoromethyl)benzamide], the IC50 against HSD17B13 enzyme [1] is no more than 100 nM; at HSD17B13 enzyme [2] it was no more than 1000 nM.

`CC(C)(C)CCn1cnc2cccc(NC(=O)c3ccc(O)c(Cl)c3)c2c1=O` [Example 10, 3-chloro-N-(3-(3,3-dimethylbutyl)-4-oxo-3,4-dihydroquinazolin-5-yl)-4-hydroxybenzamide]: the concentration for half-maximal inhibition (IC50) on HSD17B13 enzyme [1] was no more than 100 nM; against HSD17B13 enzyme [2] it was no more than 1000 nM.

Regarding `Cn1c(-c2cccnc2)nc2cccc(NC(=O)c3ccc(-c4nnn[nH]4)c(F)c3)c2c1=O` [Example 17, 3-fluoro-N-(3-methyl-4-oxo-2-(pyridin-3-yl)-3,4-dihydroquinazolin-5-yl)-4-(1H-tetrazol-5-yl)benzamide], the IC50 against HSD17B13 enzyme [1] and against HSD17B13 enzyme [2] was greater than 10000 nM throughout.

Turning to `COc1ccccc1CCn1cnc2cccc(NC(=O)c3cc(Cl)c(O)c(C(C)C)c3)c2c1=O` [Example 24, 3-chloro-4-hydroxy-5-isopropyl-N-(3-(2-methoxyphenethyl)-4-oxo-3,4-dihydroquinazolin-5-yl)benzamide], the IC50 against HSD17B13 enzyme [1] and on HSD17B13 enzyme [2] was greater than 10000 nM in each case.

Turning to `O=C(Nc1cccc2ncn(Cc3cccnc3)c(=O)c12)c1ccc(O)c(Cl)c1` [Example 30, 3-chloro-4-hydroxy-N-(4-oxo-3-(pyridin-3-ylmethyl)-3,4-dihydroquinazolin-5-yl)benzamide], the IC50 on HSD17B13 enzyme [1] was no more than 100 nM; on HSD17B13 enzyme [2], no more than 1000 nM.

For the compound `COc1ccccc1CCn1cnc2cccc(NC(=O)c3ccc(-c4cn[nH]c4)c(F)c3)c2c1=O` [Example 21, 3-fluoro-N-(3-(2-methoxyphenethyl)-4-oxo-3,4-dihydroquinazolin-5-yl)-4-(1H-pyrazol-4-yl)benzamide], the concentration for half-maximal inhibition (IC50) against HSD17B13 enzyme [1] and on HSD17B13 enzyme [2] was greater than 10000 nM throughout.

As to `O=C(Nc1cccc2ncn(-c3ccccc3)c(=O)c12)c1ccc(O)c(Cl)c1` [Example 8, 3-chloro-4-hydroxy-N-(4-oxo-3-phenyl-3,4-dihydroquinazolin-5-yl)benzamide], the IC50 against HSD17B13 enzyme [1] was 100 to 1000 nM; on HSD17B13 enzyme [2], greater than 10000 nM.

On to `COc1ccccc1CCn1cnc2cccc(NC(=O)c3ccc(-c4nnn[nH]4)c(Cl)c3)c2c1=O` [Example 27, 3-chloro-N-(3-(2-methoxyphenethyl)-4-oxo-3,4-dihydroquinazolin-5-yl)-4-(1H-tetrazol-5-yl)benzamide], for which the half-maximal inhibitory concentration (IC50) on HSD17B13 enzyme [1] fell in the range of 1000 to 10000 nM; at HSD17B13 enzyme [2] it was 1000 to 5000 nM.

For the compound `COc1ccccc1CCn1cnc2cccc(NC(=O)c3ccc(-c4cc[nH]n4)c(F)c3)c2c1=O` [Example 22, 3-fluoro-N-(3-(2-methoxyphenethyl)-4-oxo-3,4-dihydroquinazolin-5-yl)-4-(1H-pyrazol-3-yl)benzamide], the IC50 against HSD17B13 enzyme [1] is greater than 10000 nM; at HSD17B13 enzyme [2], 1000 to 5000 nM.

For the compound `COc1ccccc1CCn1cnc2cccc(NC(=O)c3ccc(-c4cnn[nH]4)c(F)c3)c2c1=O` [Example 26, 3-fluoro-N-(3-(2-methoxyphenethyl)-4-oxo-3,4-dihydroquinazolin-5-yl)-4-(1H-1,2,3-triazol-5-yl)benzamide], the IC50 on HSD17B13 enzyme [1] was 1000 to 10000 nM; at HSD17B13 enzyme [2] it was greater than 10000 nM.

For the compound `O=C(Nc1cccc2ncn(-c3cccnc3)c(=O)c12)c1ccc(O)c(Cl)c1` [Example 9, 3-chloro-4-hydroxy-N-(4-oxo-3-(pyridin-3-yl)-3,4-dihydroquinazolin-5-yl)benzamide], the half-inhibitory concentration (IC50) at HSD17B13 enzyme [1] was 100 to 1000 nM; on HSD17B13 enzyme [2] it was greater than 10000 nM.

In the case of `COc1ccccc1CCn1cnc2cccc(NC(=O)c3ccc(O)c(F)c3)c2c1=O` [Example 2, 3-fluoro-4-hydroxy-N-(3-(2-methoxyphenethyl)-4-oxo-3,4-dihydroquinazolin-5-yl)benzamide], the half-maximal inhibitory concentration (IC50) at HSD17B13 enzyme [1] was no more than 100 nM; at HSD17B13 enzyme [2] it was no more than 1000 nM.

For `O=C(Nc1cccc2ncn(Cc3ccccc3)c(=O)c12)c1ccc(O)c(Cl)c1` [Example 3, N-(3-benzyl-4-oxo-3,4-dihydroquinazolin-5-yl)-3-chloro-4-hydroxybenzamide], the values for the IC50 on HSD17B13 enzyme [1] and against HSD17B13 enzyme [2] were no more than 100 nM and no more than 1000 nM, respectively.

`COc1ccccc1CCn1cnc2cccc(NC(=O)c3ccc(S(N)(=O)=O)c(Cl)c3)c2c1=O` [Example 29, 3-chloro-N-(3-(2-methoxyphenethyl)-4-oxo-3,4-dihydroquinazolin-5-yl)-4-sulfamoylbenzamide]: the IC50 on HSD17B13 enzyme [1] and against HSD17B13 enzyme [2] was greater than 10000 nM throughout.

Turning to `COc1ccccc1CCn1cnc2cccc(NC(=O)c3ccnc(C(F)(F)F)c3)c2c1=O` [Example 7, N-(3-(2-methoxyphenethyl)-4-oxo-3,4-dihydroquinazolin-5-yl)-2-(trifluoromethyl)isonicotinamide], the IC50 against HSD17B13 enzyme [1] and at HSD17B13 enzyme [2] was greater than 10000 nM each time.
